Experimental data reported in patent US20210163976A1, “GENETICALLY ALTERED PLANTS EXPRESSING HETEROLOGOUS RECEPTORS THAT RECOGNIZE LIPO-CHITOOLIGOSACCHARIDES” (Aarhus Universitet, priority 2018, published 2021).
Positions count from the first letter of the chain named. Numbers in names are those of the source. Entries after “also recorded” stand apart in the source; their conditions may differ.

B1: wild type Nfp gene: wild type Medicago NFP LysM receptor transgene (SEQ ID NO: 1) (protein)
chain: MSAFFLPSSSHALFLVLMLFFLTNISAQPLYISETNFTCPVDSPPSCETYVAYRAQSPNFLSLSNISDIFNLSPLRIAKASNIEAEDKKLIPDQLLLVPVTCGCTKNHSFANITYSIKQGDNFFILSITSYQNLTNYLEFKNFNPNLSPTLLPLDTKVSVPLFCKCPSKNQLNKGIKYLITYVWQDNDNVTLVSSKFGASQVEMLAENNHNFTASTNRSVLIPVTSLPKLDQPSSNGRKSSSQNLALIIGISLGSAFFILVLTLSLVYVYCLKMKRLNRSTSSSETADKLLSGVSGYVSKPTMYEIDAIMEGTTNLSDNCKIGESVYKANIDGRVLAVKKIKKDASEELKILQKVNHGNLVKLMGVSSDNDGNCFLVYEYAENGSLEEWLFSESSKTSNSVVSLTWSQRITIAMDVAIGLQYMHEHTYPRIIHRDITTSNILLGSNFKAKIANFGMARTSTNSMMPKIDVFAFGVVLIELLTGKKAMTTKENGEVVILWKDFWKIFDLEGNREERLRKWMDPKLESFYPIDNALSLASLAVNCTADKSLSRPTIAEIVLCLSLLNQPSSEPMLERSLTSGLDAEATHVVTSVIAR
B2: NFP L147D L154D: double-mutated NFP, leucine residues L147 and L154 replaced with aspartate (protein, UniProt Q0GXS4 28-246, looked up, variant L147D L154D)
extracellular domain: QPLYISETNFTCPVDSPPSCETYVAYRAQSPNFLSLSNISDIFNLSPLRIAKASNIEAEDKKLIPDQLLLVPVTCGCTKNHSFANITYSIKQGDNFFILSITSYQNLTNYLEFKNFNPNDSPTLLPDDTKVSVPLFCKCPSKNQLNKGIKYLITYVWQDNDNVTLVSSKFGASQVEMLAENNHNFTASTNRSVLIPVTSLPKLDQPSSNGRKSSSQNLA
modifications: extracellular domain
notes: double-mutated NFP, leucine residues L147 and L154 replaced with aspartate
B3: Q119F: NFP substitution variant outside the hydrophobic patch in LysM2 (protein, UniProt Q0GXS4 28-595, looked up, variant Q119F)
Serine/threonine …: QPLYISETNFTCPVDSPPSCETYVAYRAQSPNFLSLSNISDIFNLSPLRIAKASNIEAEDKKLIPDQLLLVPVTCGCTKNHSFANITYSIKFGDNFFILSITSYQNLTNYLEFKNFNPNLSPTLLPLDTKVSVPLFCKCPSKNQLNKGIKYLITYVWQDNDNVTLVSSKFGASQVEMLAENNHNFTASTNRSVLIPVTSLPKLDQPSSNGRKSSSQNLALIIGISLGSAFFILVLTLSLVYVYCLKMKRLNRSTSSSETADKLLSGVSGYVSKPTMYEIDAIMEGTTNLSDNCKIGESVYKANIDGRVLAVKKIKKDASEELKILQKVNHGNLVKLMGVSSDNDGNCFLVYEYAENGSLEEWLFSESSKTSNSVVSLTWSQRITIAMDVAIGLQYMHEHTYPRIIHRDITTSNILLGSNFKAKIANFGMARTSTNSMMPKIDVFAFGVVLIELLTGKKAMTTKENGEVVILWKDFWKIFDLEGNREERLRKWMDPKLESFYPIDNALSLASLAVNCTADKSLSRPTIAEIVLCLSLLNQPSSEPMLERSLTSGLDAEATHVVTSVIAR
B4: T150H: NFP substitution variant outside the hydrophobic patch in LysM2 (protein, UniProt Q0GXS4 28-595, looked up, variant T150H)
Serine/threonine …: B3 Serine/threonine … with F92Q, T123H
B5: T216F: NFP substitution variant in LysM3 (protein, UniProt Q0GXS4 28-595, looked up, variant T216F)
Serine/threonine …: B3 Serine/threonine … with F92Q, T189F
B6: K141E: NFP substitution variant outside the hydrophobic patch in LysM2 (protein, UniProt Q0GXS4 28-595, looked up, variant K141E)
Serine/threonine …: B3 Serine/threonine … with F92Q, K114E

Experiments:
[1] = molecular target: T1, Medicago NFP ectodomain (NFP-ECD, WT) (Medicago truncatula, UniProt Q0GXS4); assay: Biolayer interferometry (BLI) binding of NFP-ECD to immobilized biotinylated ligands; conditions: for reduction of binding to NFP-ECD compared to wild type S. meliloti LCO-IV: FIGS. 15D-15E; for binding to NFP of mutated LCOs: FIG. 3B, Example 4
T1 construct: The Medicago truncatula NFP ectodomain (residues 28-246) was codon-optimized; AcMNPV gp67 signal peptide (replaces native signal peptide 1-27) (N); made in house; host or cells: Sf9 (Spodoptera frugiperda), baculovirus, secreted into medium
T1 sequence (Q0GXS4 28-246): B2 extracellular domain with D120L, D127L
Description: (§1) Expression and purification of Medicago NFP ectodomain: The Medicago truncatula NFP ectodomain (residues 28-246) was codon-optimized for insect cell expression (Genscript, Piscataway, USA) and cloned into the pOET4 baculovirus transfer vector (Oxford Expression Technologies). The native NFP signal peptide (residues 1-27, predicted by SignalP 4.1) was replaced with the AcMNPV gp67 signal peptide to facilitate secretion and a hexa-histidine tag was added to the C-terminus. Point mutants of NFP were engineered using site-directed mutagenesis. Recombinant baculoviruses were produced in Sf9 cells (Spodoptera frugiperda) using the FlashBac Gold kit (Oxford Expression technologies) according to the manufacturer's instructions with Lipofectin (ThermoFisher Scientific) as a transfection reagent. Protein expression was performed as follows. Suspension-cultured Sf9 cells were maintained with shaking at 299 K in serum-free MAX-XP (BD-Biosciences, discontinued) or HyClone SFX (GE Healthcare) medium supplemented with 1% Pen-Strep (10000 U/ml, Life technologies) and 1% CD lipid concentrate (Gibco). Protein expression was induced by adding recombinant passage 3 virus once the Sf9 cells reached a cell density of 1.0*10^7^6 cells/ml. After 5-7 days of expression, medium supernatant containing NFP ectodomains was harvested by centrifugation. This was followed by an overnight dialysis step against 50 mM Tris-HCl pH 8, 200 mM NaCl at 277 K. The NFP ectodomain was enriched by two subsequent steps of Ni-IMAC purification (HisTrap excel/HisTrap HP, both GE Healthcare). For crystallography experiments, N-glycans were removed using the endoglycosidase PNGase F (1:15 (w/w), room temperature, overnight). As a final purification step, NFP ectodomain was purified by SEC on a Superdex 200 10/300 or HiLoad Superdex 200 16/600 (both GE Healthcare) in phosphate buffered saline at pH 7.2 supplemented to a total of 500 mM NaCl (for binding assays) or 50 mM Tris-HCl, 200 mM NaCl (for crystallography). NFP ectodomain elutes as a single, homogeneous peak corresponding to a monomer. Point mutated versions of NFP were expressed and purified following the same protocol.
(§2) Biolayer interferometry (BLI): Binding of NFP and mutated versions of NFP to ligands was measured on an Octet RED 96 system (Pall ForteBio). The ligands used were LCO-IV (from S. meliloti), LCO-V (from S. meliloti), LCO-V (from M. loti), and C06 (from M. loti). S. meliloti LCO consists of a tetrameric/pentameric N-acetylglucosamine backbone that is 0-sulfated on the reducing terminal residue, 0-acetylated on the non-reducing terminal residue, and mono-N-acylated by unsaturated C16 acyl groups. M. loti LCO is a pentameric N-acetylglucosamine with a cis-vaccenic acid and a carbamoyl group at the non-reducing terminal residue together with a 2,4-O-acetylfucose at the reducing terminal residue. Biotinylated ligand conjugates were immobilized on streptavidin biosensors (kinetic quality, Pall ForteBio) at a concentration of 125-250 nM for 5 minutes. The binding assays using the S. meliloti ligands (LCO-IV and LCO-V) were replicated seven times, while the binding assays using the M loti ligands (LCO-V and C06) were replicated six times. Data analysis was performed in GraphPad Prism 6 software (GraphPad Software, Inc.). Equilibrium dissociation constants derived from the steady-state were determined by applying a non-linear regression (one site, specific binding) to the response at equilibrium plotted against the protein concentration. Kinetic parameters were determined by non-linear regression (association followed by dissociation) on the subtracted data.
(§3) Mutated lipochitooligosaccharide (LCO) ligands: S. meliloti LCO consists of a tetrameric/pentameric N-acetylglucosamine backbone that is O-sulfated on the reducing terminal residue, O-acetylated on the non-reducing terminal residue, and mono-N-acylated by unsaturated C16 acyl groups. […]

[2] = molecular target: T2, Medicago truncatula NFP ectodomain (NFP-ECD, residues 28-246), wild type, SEQ ID NO: 1 (Medicago truncatula, UniProt Q0GXS4); assay: Biolayer interferometry (BLI) binding of NFP / NFP-ECD to immobilized LCO and CO ligands; conditions: for Binding of mutated LCOs to NFP (in words): ligand binding tests, FIG. 3B
T2 construct: The Medicago truncatula NFP ectodomain (residues 28-246); AcMNPV gp67 signal peptide (replaces native signal peptide 1-27) (N); hexa-histidine tag (C); made in house; host or cells: Sf9 cells (Spodoptera frugiperda), baculovirus
Description: as §1, §2, §3

Medicago nfp mutants = assay: Complementation assay (nodulation) by hairy root transformation; format: in vivo; conditions: for nodules per plant (complementation): 49 days after inoculation with S. meliloti strain 1021, FIG. 6A
From the text: Complementation assay: Construct assembly, plant growth conditions, hairy root transformations, nodulation and ROS assays were generally conducted as described in Bozsoki et al. (2017) (Bozsoki Z, Cheng J, Feng F, Gysel K, Vinther M, Andersen KR, Oldroyd G, Blaise M, Radutoiu S, Stougaard J (2017) Receptor-mediated chitin perception in legume roots is functionally separable from Nod factor perception. Proc Natl Acad Sci 114: E8118-E8127). The tested transgenes were the mutated LysM receptors described in Example 5. In addition, NFP substitution variants replacing residues outside the hydrophobic patch in LysM2 (Q119F, K141E and T150H) or in LysM3 (T216F) were tested.

Row | Molecule | binding to NFP of mutated LCOs [1] | Binding of mutated LCOs to NFP (in words) [2] | nodules per plant (complementation) (Medicago nfp mutants) | further results
1 | CC(=O)N[C@H]1[C@H](O[C@H]2[C@H](O)[C@@H](NC(C)=O)[C@H](O[C@H]3[C@H](O)[C@@H](NC(C)=O)C(O)O[C@@H]3CO)O[C@@H]2CO)O[C@H](CO)[C@@H](O[C@@H]2O[C@H](CO)[C@@H](O[C@@H]3O[C@H](CO)[C@@H](O[C@@H]4O[C@H](CO)[C@@H](O)[C@H](O)[C@H]4NC(C)=O)[C@H](O)[C@H]3NC(C)=O)[C@H](O)[C@H]2NC(C)=O)[C@@H]1O (stereo partly shown) [M. loti C06] |  |  |  | NFP binding (BLI) ([1]; BLI, FIG. 2B, six replicates): not detected; also recorded: does not bind; Binding to NFP (in words) ([2]; BLI, FIG. 2B, six replicates): neither was NFP binding; also recorded: does not bind
2 | CCCCCC/C=C\CCCCC/C=C/C(=O)N[C@H]1[C@H](O[C@H]2[C@H](O)[C@@H](NC(C)=O)[C@H](O[C@H]3[C@H](O)[C@@H](NC(C)=O)[C@H](O[C@H]4[C@H](O)[C@@H](NC(C)=O)C(O)O[C@@H]4COS(=O)(=O)O)O[C@@H]3CO)O[C@@H]2CO)O[C@H](CO)[C@@H](O)[C@@H]1O (stereo partly shown) [nodL-LCO-IV] | Dramatically reduced binding | Dramatically reduced binding |  | reduction of binding to NFP-ECD compared to wild type S. meliloti LCO-IV ([1]; BLI): more than 10 fold
3 | CCCCCC/C=C\CCCCC/C=C/C(=O)N[C@H]1[C@H](O[C@H]2[C@H](O)[C@@H](NC(C)=O)[C@H](O[C@H]3[C@H](O)[C@@H](NC(C)=O)[C@H](O[C@H]4[C@H](O)[C@@H](NC(C)=O)C(O)O[C@@H]4CO)O[C@@H]3CO)O[C@@H]2CO)O[C@H](COC(C)=O)[C@@H](O)[C@@H]1O (stereo partly shown) [nodH-LCO-IV] | Dramatically reduced binding | Dramatically reduced binding |  | reduction of binding to NFP-ECD compared to wild type S. meliloti LCO-IV ([1]; BLI): more than 21 fold
4 | CCCCCC/C=C\CCCCCCCCCC(=O)N[C@H]1[C@H](O[C@H]2[C@H](O)[C@@H](NC(C)=O)[C@H](O[C@H]3[C@H](O)[C@@H](NC(C)=O)[C@H](O[C@H]4[C@H](O)[C@@H](NC(C)=O)C(O)O[C@@H]4COS(=O)(=O)O)O[C@@H]3CO)O[C@@H]2CO)O[C@H](COC(C)=O)[C@@H](O)[C@@H]1O (stereo partly shown) [nodFE-LCO-IV] | reduced NFP binding | reduced NFP binding |  | NFP-ECD binding (BLI) ([1]; further BLI assays, FIGS. 15B-15E): no significant binding; Binding to NFP-ECD (in words) ([2]; further BLI assays, FIGS. 15B-15E, analyte 1.56-100 μM): no significant binding
5 | B1 |  |  | 5 nodules per plant | 
6 | B2 |  |  | did not develop any nodules | complementation (nodulation) (Medicago nfp mutants; S. medicae inoculation, 28 dpi, FIG. 6B): complements poorly
7 | B3 |  |  | did not affect nodulation | 
8 | B4 |  |  | did not affect nodulation | 
9 | B5 |  |  | did not affect nodulation | 
10 | B6 |  |  | did not affect nodulation | 
